This is an account of results in patent US20130136722A1, “Methods of Ex Vivo Expansion of Blood Progenitor Cells, and Generation of Composite Grafts” (The Board of Trustees of The University of Illinois, priority 2011, published 2013).

Holding throughout (format): cell-based, human
In test [1] the test system is cobblestone area-forming cells (CAFC). The test can be described thus: Cobblestone area-forming cell (CAFC) assay, limiting dilution on M2-10B4 stromal cells. Particulars: limiting dilution; mean ± SEM of three independent experiments. The protocol: (§1) Colony-forming cell (CFC) were assayed by plating 5×10^2 cells per dish in semisolid media and were counted after 14 days as described (Araki et al., 2009, Id.). The number of cobble stone area-forming cell (CAFC) was quantitated in primary and expanded CD34+ cells by plating in limiting dilution onto irradiated M2-10B4 stromal cells as described (Araki et al., 2009, Id.; Conneally et al., 1997, Proc. Natl. Acad. Sci. USA. 94: 9836-9841; Taswell, 1981, J. Immunol. 126: 1614-1619).
(§2) In order to determine the a correlation between expansion of CD34^+CD90^+ cells and their functional potential as pluripotent hematopoietic stem cells, in vitro functional assays were performed, including assessment of colony-forming cells (CFC), a short-term assay, and cobblestone-area forming cells (CAFC), a long-term assay.

Test [2] deals with cord blood-derived CD34+CD90+ cells. The test can be described thus: Ex vivo expansion culture of cord blood CD34+ cells with chromatin modifying agents, flow cytometry for CD34/CD90. Particulars: for cells co-expressing CD34+ and CD90+ / fold expansion of CD34+CD90+ cells / expansion of CD34+CD90+ cells (in words): 9 days of culture; for cells co-expressing CD34+ and CD90+: cytokines (SCF, Flt3-ligand, TPO, IL-3) plus CMA, FIG. 1A; for fold expansion of CD34+CD90+ cells: cytokines plus CMA; for fold expansion of CD34+CD90+ cells / expansion of CD34+CD90+ cells (in words): FIG. 1B; for CD34+CD90+ (%): mean ± SEM of three independent experiments. From the text: Freshly collected human CB was obtained from the New York Blood Center (New York, N.Y.) according to Institutional Review Board guidelines. Low density CB cells (<1.077 g/ml) were obtained by density centrifugation on Ficoll-Paque PLUS (GE Healthcare Bio-Sciences AB, Uppsala, Sweden), from which CD34^+ cells were immunomagnetically isolated by the MACS CD34 progenitor isolation kit (Miltenyi Biotech, Inc., Auburn, Calif.) as described in Araki et al., 2009, Exp Hematol. 37: 1084-1095). The purity of isolated CD34^+ cells routinely ranged from 90-99%.
CD34^+ cell expansion culture with or without CMA was carried out as described (Araki et al., 2009, Id.; Araki et al. 2006, Exp Hematol. 34: 140-149; Araki et al, 2007, Blood 109: 3570-3578.). All other HDAC inhibitors including 1 mM VPA (Sigma), TSA (5 ng/mL), NA (5 mM) or 5 μM of Suberoylanilide hydroxamic acid (SAHA; BioVision, Inc. Mountain View, Calif.) was added twice at 0 hr and after changing media at 48 hrs of culture. HDAC inhibitors were added only once (48 hr) when used in combination with a DNMT inhibitor as described (Araki et al., 2009, Id.; Araki et al., 2006, Id.; Himburg et al., 2010, Nat. Med. 16: 475-482).
Flow cytometric analysis was carried out as described (Araki et al., 2009, Id.; Araki et al. 2006, Id.; Araki et al, 2007, Id.). All antibodies were purchased from BD Bioscience (San Jose, Calif.). All analyses were paired with the corresponding matched isotype control and at least 10,000 live cells were acquired for each analysis (CellQuest software, Becton Dickinson).
In order to compare the effects of various chromatin modifying agents (CMAs) on the degree of expansion of cord blood-derived, primitive subpopulation of CD34^+ cells, valproic acid (VPA), trichostatin A (TSA), nicotinic acid (NA), suberoylanilide hydroxamic acid (SAHA) or 5-aza-2′-deoxycytidine (5azaD) as single agents or in combination was tested in vitro. The results of fluorescence-activated cell sorting experiments performed on cord blood-derived CD34^+/CD90^+ cells treated with CMA agents is shown in FIG. 1A.

Test [3] has as its system colony-forming cells (CFC). Nature of the test: Colony-forming cell (CFC) assay of CMA expanded CB cells. Conditions: mean ± SEM of three independent experiments. The protocol: as §1, §2

As to `Nc1ncn([C@H]2C[C@H](O)[C@@H](CO)O2)c(=O)n1` [5azaD, 5-aza-2′-deoxycytidine], the “CAFC Frequency/10^4 cells” value in test [1] is listed as 21.73 ± 14.57 /10^4 cells. For the same molecule, in test [2], the “cells co-expressing CD34+ and CD90+” value is 2%; the “fold expansion of CD34+CD90+ cells” value worked out at 1.2±0.5 fold; the “CD34+CD90+ (%)” value turned out to be 2.33 ± 0.60%. Besides, the “CFC PE (%) (Colony Forming Cell Plating Efficiency)” value in test [3] was found to be 8.70 ± 1.37%.

`O=C(O)c1cccnc1` [NA, nicotinic acid]: in test [2], the “cells co-expressing CD34+ and CD90+” value amounted to 6%; the “fold expansion of CD34+CD90+ cells” value was determined as 2.1 fold; the “expansion of CD34+CD90+ cells (in words)” value was “did not promote the expansion”.

Take `O=C(CCCCCCC(=O)Nc1ccccc1)NO` [SAHA, suberoylanilide hydroxamic acid]: in test [2], the “cells co-expressing CD34+ and CD90+” value is 3%; the “fold expansion of CD34+CD90+ cells” value is recorded as 1.2 fold; the “expansion of CD34+CD90+ cells (in words)” value is given as “did not promote the expansion”.

`CC(/C=C/C(=O)NO)=C\[C@@H](C)C(=O)c1ccc(N(C)C)cc1` [TSA, trichostatin A]: the “CAFC Frequency/10^4 cells” value in test [1] is 6.39 ± 4.81 /10^4 cells. Besides, in test [2], the “cells co-expressing CD34+ and CD90+” value came out at 5%; the “fold expansion of CD34+CD90+ cells” value is reported as 7.8±3.5 fold; the “CD34+CD90+ (%)” value is 5.60 ± 0.29^¤ %. For the same molecule, the “CFC PE (%) (Colony Forming Cell Plating Efficiency)” value in test [3] came to 4.97 ± 0.39%.
